The values that follow come from patent US20040242545A1, “Remedy for glaucoma comprising as the active ingredient compound having p13 kinase inhibitory effect” (Santen Phamaceutical Co., Ltd., priority 2001, published 2004).

Holding throughout (format): in vivo
Experiment [1] deals with intraocular pressure. The experiment can be described thus: Intraocular pressure measurement after administration into rabbit anterior chamber. As to conditions: for Difference of intraocular pressure, 2 hours after administration / Difference of intraocular pressure, 4 hours after administration / Difference of intraocular pressure, 6 hours after administration: vs just before administration; for Difference of intraocular pressure, 2 hours before administration: pre-dose value vs just before administration; for Difference of intraocular pressure, just before administration: reference time point; for Maximum breadth of the intraocular pressure reduction: on 6 hours after administration. As to the method: In order to examine the influence of the compound having a PI3 kinase blocking action upon the intraocular pressure reduction, measurement of intraocular pressure was conducted using an applanation tonometer or a pneumatic applanation tonometer. LY294002 and wortmannin were provided as test compounds. The former compound was dissolved in methanol to give the concentration of 10^-1 M, and thereto was added 2-hydroxypropyl-β-cyclodextrin as a solubilizer. This solution was diluted in physiological saline to give a LY294002 solution having the concentration of 10^-3 M. The amount of used 2-hydroxypropyl-β-cyclodextrin was determined to make the final concentration thereof to be 4×10^-3 M. Wortmannin was dissolved in dimethylsulfoxide to give the concentration of 10^-1 M for use in the test of administration into anterior chamber, and the obtained solution was diluted in physiological saline to give solutions having the concentration of 10^-4 M and 10^-5 M. Furthermore, dissolution of the compound was conducted in dimethylsulfoxide to give the concentration of 10^-1 M for use in the instillation test, and the obtained solution was diluted in physiological saline to give a 0.04284% (10^-3 M) solution in a suspension state. Rabbit intraocular pressure measurement: An electric current source of a tonometer (pneutonometer model 30 classic) was turned on, and calibration was conducted. […] injection needle was attached to a microsyringe, and a test compound solution or a vehicle was aspirated therein. A rabbit positioner made of aluminum for use in administration into anterior chamber was placed on a table made of aluminum. Further, a rabbit positioner made of wood for use in measurement of intraocular pressure was separately placed on the table made of aluminum. Administration into rabbit anterior chamber: A rabbit was placed on a rabbit positioner made of aluminum for use in administration into anterior chamber, and 0.4% oxybuprocaine hydrochloride was instilled to both eyes with one drop. After fixing an eye lid retractor, the bulbar conjunctiva was held with tweezers, and the needle point was passed from corneallimbus into corneal stroma in the […] direction with the depth of about 2 to 3 mm. Thereafter, the needlepoint was pierced into the anterior chamber, where the test compound solution was infused in an amount of 20 μL. […] Following the completion of the administration operation, the rabbit was brought back to the cage. The rabbit was brought out from the cage on two hours before the administration, just before the administration, and on 2, 4 and 6 hours after the administration, and was placed on the positioner made of wood. Oxybuprocaine hydrochloride at the concentration of 0.4% was instilled to both eyes, and intraocular pressure was measured after fixing the eye lid retractor. The vehicle was administered in a similar manner. Using the intraocular pressure just before the administration as a reference, results are shown by difference (mmHg) between the intraocular pressure of the reference and the intraocular pressure at each time point of the measurement. As obvious from Table 1, the intraocular pressure reduction was observed after the administration of LY294002. Maximum breadth of the intraocular pressure reduction (maximum value of the difference between values of the group administered with the vehicle and the group administered with the test compound) was observed on 6 hours after the administration of 10^-3 M LY294002, with the value of 3.7 mmHg.

Experiment [2] concerns intraocular pressure. The experiment can be described thus: Intraocular pressure measurement after instillation to monkey. On the procedure: (§1) In order to examine the influence of the compound having a PI3 kinase blocking action upon the intraocular pressure reduction, measurement of intraocular pressure was conducted using an applanation tonometer or a pneumatic applanation tonometer. Wortmannin was dissolved in dimethylsulfoxide to give the concentration of 10^−1 M for use in the test of administration into anterior chamber, and the obtained solution was diluted in physiological saline to give solutions having the concentration of 10^−4 M and 10^−5 M. Furthermore, dissolution of the compound was conducted in dimethylsulfoxide to give the concentration of 10^−1 M for use in the instillation test, and the obtained solution was diluted in physiological saline to give a 0.04284% (10^−3 M) solution in a suspension state. Monkey intraocular pressure measurement: Measurement of intraocular pressure was conducted using a pneumatic applanation tonometer (Alcon Japan. Ltd.). Test of instillation to monkey: The test compound solution in an amount of 20 μL was instilled to the eye to be administered. The measurement time of the intraocular pressure was on one hour before the administration, just before the administration, and on 2, 4 and 6 hours after the administration. Using the intraocular pressure just before the administration as a reference, results are shown by difference (mmHg) between the intraocular pressure of the reference and the intraocular pressure at each time point of the measurement. As obvious from Table 1, the intraocular pressure reduction was observed after the administration of LY294002. Maximum breadth of the intraocular pressure reduction (maximum value of the difference between values of the group administered with the vehicle and the group administered with the test compound) was observed on 6 hours after the administration of 10^−3 M LY294002, with the value of 3.7 mmHg.

Experiment [3] has as its system intraocular pressure. The experiment can be described thus: Intraocular pressure measurement after administration into monkey anterior chamber. On the procedure: as §1, with “Ltd.). Administration into monkey anterior chamber:” for “Ltd.). Test of instillation to monkey:”, “The administration was carried out” for “The test compound solution”, “in accordance with the process for administering” for “in an amount of 20 μL was instilled”, “the rabbit.” for “the eye to be administered.”, “The dosage amount was 10 μL, and the” for “The”

Where [4] appears, read: 10^−3 M LY294002, 20 μL, mean of 6.
The mark [5] stands for this setting: 10^−4 M wortmannin, 20 μL, mean of 4.
The mark [6] stands for this setting: 10^−5 M wortmannin, 20 μL, mean of 4.
The mark [7] stands for this setting: instillation, 0.04284% (10^−3 M) wortmannin suspension, 20 μL, vs just before administration, mean of 5.
The mark [8] stands for this setting: 10^−4 M wortmannin, 10 μL, vs just before administration.

On to `O=c1cc(N2CCOCC2)oc2c(-c3ccccc3)cccc12` [LY294002, 2-(4-morpholinyl)-8-phenyl-4H-1-benzopyran-4-one], for which, in the experiment on intraocular pressure [1] (setting [4]), the “Difference of intraocular pressure, 2 hours after administration” value was −3.2 mmHg; the “Difference of intraocular pressure, 4 hours after administration” value is listed as −2.7 mmHg; the “Difference of intraocular pressure, 6 hours after administration” value is −2.1 mmHg. In addition, the “Maximum breadth of the intraocular pressure reduction (maximum difference between vehicle group and test compound group)” value with intraocular pressure [1] (10^−3 M LY294002, on 6 hours after administration) came to 3.7 mmHg. Moreover, the “Difference of intraocular pressure, 2 hours before administration” value with intraocular pressure [1] (10^−3 M LY294002 group, 20 μL, mean of 6) is listed as 1.9 mmHg. Further, in the experiment on intraocular pressure [1] (10^−3 M LY294002 group, mean of 6), the “Difference of intraocular pressure, just before administration” value is 0.0 mmHg.
As for `COC[C@H]1OC(=O)c2coc3c2[C@@]1(C)C1=C(C3=O)[C@@H]2CCC(=O)[C@@]2(C)C[C@H]1OC(C)=O` [wortmannin], the “Difference of intraocular pressure, 2 hours before administration” value was 2.2 mmHg with intraocular pressure [1] (10^−4 M wortmannin group, 20 μL, mean of 4) and 1.2 mmHg with intraocular pressure [1] (10^−5 M wortmannin group, 20 μL, mean of 4). Also, the “Difference of intraocular pressure, just before administration” value in the experiment with intraocular pressure [1] (10^−4 M wortmannin group, mean of 4) is listed as 0.0 mmHg; in the experiment with intraocular pressure [1] (10^−5 M wortmannin group, mean of 4) it was 0.0 mmHg; with intraocular pressure [2] (instillation, 0.04284% wortmannin group, reference time point, mean of 5) it was 0.0 mmHg; with intraocular pressure [3] (10^−4 M wortmannin group, reference time point), 0.0 mmHg. Besides, the “Difference of intraocular pressure, 2 hours after administration” value is −1.2 mmHg with intraocular pressure [1] (setting [5]), −1.5 mmHg with intraocular pressure [1] (setting [6]), −2.6 mmHg with intraocular pressure [2] (setting [7]) and −4.8 mmHg in the experiment with intraocular pressure [3] (setting [8]). The “Difference of intraocular pressure, 4 hours after administration” value in the experiment with intraocular pressure [1] (setting [5]) is −2.8 mmHg; in the experiment on intraocular pressure [1] (setting [6]), −1.0 mmHg; with intraocular pressure [2] (setting [7]) it was −3.4 mmHg; with intraocular pressure [3] (setting [8]) it was −4.3 mmHg. Further, the “Difference of intraocular pressure, 6 hours after administration” value with intraocular pressure [1] (setting [5]) is −3.0 mmHg; in the experiment with intraocular pressure [1] (setting [6]), 0.6 mmHg; in the experiment on intraocular pressure [2] (setting [7]), −1.5 mmHg; in the experiment with intraocular pressure [3] (setting [8]), −2.1 mmHg. The “Maximum breadth of the intraocular pressure reduction” value in the experiment on intraocular pressure [1] (10^−4 M wortmannin) is 6.9 mm Hg; in the experiment on intraocular pressure [1] (10^−5 M wortmannin), 3.3 mmHg; in the experiment with intraocular pressure [2] (instillation of wortmannin (0.04284%), on 4 hours after administration), 2.8 mmHg. Also, the “Difference of intraocular pressure, 1 hours before administration” value in the experiment on intraocular pressure [2] (instillation, 0.04284% (10^−3 M) wortmannin group, 20 μL, pre-dose value vs just before administration, mean of 5) was determined as 1.1 mmHg; with intraocular pressure [3] (10^−4 M wortmannin group, 10 μL, pre-dose value vs just before administration), 0.7 mmHg. In the experiment on intraocular pressure [3] (wortmannin (10^−4 M), on 2 hours after administration), the “Maximum intraocular pressure reduction” value is 4.5 mmHg.
